Measurements from article PMC8126888 (RSC Medicinal Chemistry, 2020).
Like-named read-outs stand apart in the source and are kept apart here.

Assays:
[1] = system: primary peritoneal mouse macrophages (PMM); test: cells; details: Macrophage
in vitro [2] = details: human, microsomes
in vitro [3] = details: mouse, microsomes
[4] = system: Leishmania infantum MHOM/MA(BE)/67/ITMAP263 intracellular amastigotes; test: microbe, parasite or virus in culture; details: Macrophage, in Mus musculus
[5] = system: Leishmania infantum MHOM/MA(BE)/67/ITMAP263 intracellular amastigotes; details: intracellular amastigotes in PMM
in vitro [6] = details: human
in vitro [7] = details: human, HFF-1 cells
in vitro [8] = details: human, HepG2 cells
[9] = system: Trypanosoma cruzi, Tulahuen CL2, beta-galactosidase strain; test: microbe, parasite or virus in culture
[10] = read-out: PMM pIC50 (converted)
[11] = pH 7.4, Microsome Clint Human, intrinsic in vitro clearance, liver microsomes
[12] = pH 7.4, Microsome Clint Mouse, intrinsic in vitro clearance, liver microsomes
[13] = HPLC, Ascentis Express RP Amide column, pH 7.4, elog D, HPLC measured log D, pH 7.4
[14] = read-out: L. inf. pIC50, intracellular amastigotes in PMM (converted), geometric mean of a minimum of two experiments ± standard error
[15] = pH 7.4, Microsome Clint,u Human, Table 2, intrinsic in vitro clearance, liver microsomes
[16] = pH 7.4, Microsome Clint,u Mouse, Table 2, intrinsic in vitro clearance, liver microsomes
[17] = pH 7.4, elog D, HPLC measured log D, pH 7.4
[18] = read-out: L. Inf. pIC50, from L. infantum intracellular amastigote IC50 (converted)
[19] = read-out: L. infantum MHOM/MA(BE)/67/ITMAP263 intracellular amastigotes IC50 (uM), intracellular amastigotes
[20] = MRC5, read-out: T. cruzi Tulahuen C4 (LacZ) IC50 (uM)
[21] = pH 7.4, HLM CLint, human liver microsomes
[22] = pH 7.4, MLM CLint, mouse liver microsomes
[23] = read-out: L. infantum MHOM/MA(BE)/67/ITMAP263 intracellular amastigotes IC50, intracellular amastigotes
[24] = MRC5, read-out: T. cruzi Tulahuen C4 (LacZ) IC50

In the case of `O=S(=O)(c1ccccc1OC(F)(F)F)N(Cc1ccccc1)Cc1ccccc1` [Compound 15], the IC50 [1, 10] is reported as > 64.6 µM, the microsomal CLint at 0.5 h, 0.5 µM (in vitro [2]; [11]) is reported as 92.9 µL/min/mg and the microsomal CLint at 0.5 μM (in vitro [3]; [12]) is reported as 689 µL/min/mg. It also gave a chromatographic logD (physchem; [13]) of 5.1 and an IC50 [4, 14] of 1.1 µM.

In the case of `COc1ccc(C#N)cc1S(=O)(=O)N(Cc1ccc(C(F)(F)F)nc1)Cc1ccc(C(F)(F)F)nc1` [Compound 50], the “potency against L. inf. in words” value [5] is reported as “inactive”, the IC50 [1, 10] is reported as > 64.6 µM and the microsomal CLint at 0.5 μM (in vitro [2]; [15]) is reported as < 23 µL/min/mg. The microsomal CLint at 0.5 h, 0.5 µM (in vitro [3]; [16]) was 95 µL/min/mg, the chromatographic logD (physchem; [13]) was 3.8 and the IC50 [4, 14] was 38.9 µM.

With `COc1ccc(OC)c(S(=O)(=O)N(Cc2ccc(F)cc2)c2ccc(F)cc2)c1` [Compound 33] the IC50 [1, 10] was > 64.6 µM, the microsomal CLint at 0.5 h, 0.5 µM (in vitro [2]; [15]) was 482 µL/min/mg and the microsomal CLint at 0.5 h, 0.5 µM (in vitro [3]; [16]) was 1560 µL/min/mg. It also gave a chromatographic logD (physchem; [13]) of 4.3 and an IC50 [4, 14] of 11.5 µM.

With `Cn1cccc(S(=O)(=O)N(Cc2ccc(F)cc2)Cc2ccc(F)cc2)c1=O` [Compound 31] the IC50 [1, 10] was > 64 µM, the microsomal CLint at 0.5 h, 0.5 µM (in vitro [2]; [11]) was 676 µL/min/mg and the microsomal CLint at 0.5 h, 0.5 µM (in vitro [3]; [12]) was 2450 µL/min/mg. The chromatographic logD (physchem; [17]) was 3.7 and the IC50 [4, 14] was 20.9 µM.

With `COc1ccc(OC)c(S(=O)(=O)N(Cc2ccccc2)Cc2ccccc2)c1` [Compound 9] the IC50 [1, 10] was > 64.6 µM, the microsomal CLint at 0.5 μM (in vitro [2]; [11]) was 242 µL/min/mg and the microsomal CLint at 0.5 μM (in vitro [3]; [12]) was 1300 µL/min/mg. The chromatographic logD (physchem; [13]) was 4.6 and the IC50 [4, 14] was 0.372 µM.

In the case of `COc1ccc(C(=O)N2CCOCC2)cc1S(=O)(=O)N(Cc1ccccc1)Cc1ccccc1` [Compound 22], the IC50 [1, 10] is reported as 45.7 µM, the microsomal CLint at 0.5 μM (in vitro [2]; [11]) is reported as 810 µL/min/mg and the microsomal CLint at 0.5 h, 0.5 µM (in vitro [3]; [12]) is reported as 2020 µL/min/mg. It also gave a chromatographic logD (physchem; [13]) of 3.8 and an IC50 [4, 14] of 0.457 µM.

With `COCCN(Cc1ccc(F)cc1)S(=O)(=O)c1cc(C(=O)N2CCOCC2)ccc1OC` [Compound 42] the IC50 [1, 10] was > 64.6 µM, the microsomal CLint at 0.5 μM (in vitro [2]; [15]) was 28 µL/min/mg and the microsomal CLint at 0.5 μM (in vitro [3]; [16]) was 60 µL/min/mg. It also gave a chromatographic logD (physchem; [13]) of 2.9 and an IC50 [4, 14] of 43.7 ± 0.601 µM.

With `COc1ccc(N2CCOCC2)cc1S(=O)(=O)N(Cc1ccc(F)cc1)Cc1ccc(F)cc1` [Compound 25] the IC50 [1, 10] was > 64.6 µM, the microsomal CLint at 0.5 h, 0.5 µM (in vitro [2]; [11]) was 421 µL/min/mg and the microsomal CLint at 0.5 h, 0.5 µM (in vitro [3]; [12]) was 1400 µL/min/mg. It also gave a chromatographic logD (physchem; [13]) of 4.2 and an IC50 [4, 14] of 0.324 µM.

With `COc1ccc(CN(Cc2ccc(F)cc2)S(=O)(=O)c2cc(C#N)ccc2OC)cc1` [DNDI0003371172] the IC50 ([1]; read-out: PMM IC50 (uM)) was > 64 µM, the CC50 at 3 days (in vitro [6]) was > 64 µM and the CC50 (in vitro [7]) was 22.6 µM. The CC50 (in vitro [8]) was 35.3 µM, the IC50 [4, 18] was 2.95 µM and the IC50 [4, 19] was 2.92 µM. The IC50 [9, 20] was 13.2 µM.

For `COc1ccc(OC)c(S(=O)(=O)N(Cc2ccc(F)cc2)Cc2cnc(OC)nc2OC)c1` [Compound 34], the IC50 [1, 10] was > 64.6 µM, the microsomal CLint at 0.5 h, 0.5 µM (in vitro [2]; [15]) was 498 µL/min/mg and the microsomal CLint at 0.5 h, 0.5 µM (in vitro [3]; [16]) was 3150 µL/min/mg. The chromatographic logD (physchem; [13]) was 3.8 and the IC50 [4, 14] was 53.7 µM.

For `COc1ccc(CN(Cc2ccc(F)cc2)S(=O)(=O)c2cc(F)ccc2F)cc1` [DNDI0003388150], the IC50 ([1]; read-out: PMM IC50 (uM)) was > 64 µM, the CC50 at 3 days (in vitro [6]) was > 64 µM and the CC50 (in vitro [7]) was > 64 µM. The CC50 (in vitro [8]) was > 64 µM, the IC50 [4, 18] was 57.5 µM and the IC50 [4, 19] was 57 µM. The IC50 [9, 20] was 54.4 µM.

With `COc1ncc(Br)cc1S(=O)(=O)N(Cc1ccc(F)cc1)Cc1ccc(F)cc1` [DNDI0003369122] the IC50 ([1]; read-out: PMM IC50) was > 64 µM, the microsomal CLint at 0.5 μM (in vitro [2]; [21]) was 95 µL/min/mg and the microsomal CLint at 0.5 μM (in vitro [3]; [22]) was 469 µL/min/mg. For the same compound, the chromatographic logD (physchem; HPLC, Ascentis Express RP Amide column, pH 7.4, eLogD, experimental) was 5.2, the CC50 at 3 days (in vitro [6]) was > 64 µM and the IC50 [4, 18] was 14.8 µM. For the same compound, the IC50 [4, 23] was 14.8 µM and the IC50 [9, 24] was 7.43 µM.

In the case of `COc1ccc(C(N)=O)cc1S(=O)(=O)N(Cc1ccccc1)Cc1ccccc1` [DNDI0003366135], the IC50 ([1]; read-out: PMM IC50) is reported as > 64 µM, the microsomal CLint at 0.5 μM (in vitro [2]; [21]) is reported as 108 µL/min/mg and the microsomal CLint at 0.5 μM (in vitro [3]; [22]) is reported as 1670 µL/min/mg. The CC50 at 3 days (in vitro [6]) was 43.2 µM, the IC50 [4, 18] was 7.41 µM and the IC50 [4, 23] was 7.39 µM. For the same compound, the IC50 [9, 24] was > 64 µM.

In the case of `COc1ncccc1S(=O)(=O)N(Cc1ccccc1)Cc1ccccc1` [Compound 30], the IC50 [1, 10] is reported as > 64 µM, the microsomal CLint at 0.5 μM (in vitro [2]; [11]) is reported as 849 µL/min/mg and the microsomal CLint at 0.5 h, 0.5 µM (in vitro [3]; [12]) is reported as 2570 µL/min/mg. For the same compound, the chromatographic logD (physchem; [17]) was 4.3 and the IC50 [4, 14] was 0.646 µM.

With `COc1ccc(C(N)=O)cc1S(=O)(=O)N(Cc1ccccc1)Cc1ccccc1` [Compound 21] the IC50 [1, 10] was > 64.6 µM, the microsomal CLint at 0.5 μM (in vitro [2]; [11]) was 108 µL/min/mg and the microsomal CLint at 0.5 μM (in vitro [3]; [12]) was 1670 µL/min/mg. The chromatographic logD (physchem; [13]) was 3.6 and the IC50 [4, 14] was 7.41 µM.
